Assay results from patent US4835253A, “Specific inhibitors of tissue kallikrein” (The University Hospital, priority 1987, dated 1989).
“And” between values parts separate entries of the source, which are not always exact repeats. Identical values can stand only once. Like-named read-outs stand apart in the source and are kept apart here. Ada = not defined here

Legend:
bradykinin = experiment: Rat femoral artery blood flow response to bradykinin during inhibitor infusion; format: in vivo
Description: (§1) In order to develop a more reproducible, less tachyphylactic system, a rat blood flow model was developed and assessed in male Sprague-Dawley rats. These animals were anesthetized subcutaneously with urethane (1.4 g/kg). Polyethylene PE-10 tubing was inserted into the right femoral artery and femoral vein for intra-arterial and intravenous injections, respectively, the arterial catheter was inserted such that the tip was located immediately proximal to the bifurcation. The rats were tracheostomized and cannulated with PE-200 tubing. A subcutaneous 23 gauge needle was left in the back of the animal for booster injections of urethane (0.35 g/kg every 2.5 hours). A blood flow probe (1.5 mm circumference) was placed on the left femoroal artery and the mean femoral arterial blood flow was monitored with a square-wave electromagnetic flowmeter (Carolina Medical Electronics, model 501). Rat submaxillary gland kallikrein (hereinafter "RSK") or porcine pancreatic kallikrein (hereinafter "PPK") was given intra-arterially, unless otherwise indicated, until a reproducible response was obtained. […] The blood flow increase over the basal blood flow was integrated and expressed as arbitrary units or as the percent change from blood flow increased observed during the control period. […]

[1] = Mean arterial blood pressure in normotensive, salt-replete rats (infusion or bolus); format: in vivo, rat
Method: Subsequently, a third study utilizing normotensive, salt-replete rats was performed employing an infusion of KKI-7 at a rate of 200 ug of inhibitor per kilogram of rat per minute (200 ug/kg/min). Eight rats each received this infusion for 15 minutes during which the change in mean arterial blood pressure (Torr) was monitored. The results are provided by FIG. 2. In addition, a series of bolus injections were given to conscious, salt-replete, normotensive rats to determine the ED50 dosage necessary to cause a substantive increase in blood pressure. The results are graphically illustrated by FIG. 3 as the log-dose response effect of KKI-7 upon blood pressure.

[2] = molecular target: porcine pancreatic kallikrein (Sus scrofa, UniProt P00752); experiment: Rat femoral artery blood flow response to PPK during and after inhibitor infusion; format: in vivo
Description: (§2) In order to develop a more reproducible, less tachyphylactic system, a rat blood flow model was developed and assessed in male Sprague-Dawley rats. These animals were anesthetized subcutaneously with urethane (1.4 g/kg). Polyethylene PE-10 tubing was inserted into the right femoral artery and femoral vein for intra-arterial and intravenous injections, respectively, the arterial catheter was inserted such that the tip was located immediately proximal to the bifurcation. The rats were tracheostomized and cannulated with PE-200 tubing. A subcutaneous 23 gauge needle was left in the back of the animal for booster injections of urethane (0.35 g/kg every 2.5 hours). A blood flow probe (1.5 mm circumference) was placed on the left femoroal artery and the mean femoral arterial blood flow was monitored with a square-wave electromagnetic flowmeter (Carolina Medical Electronics, model 501). Rat submaxillary gland kallikrein (hereinafter "RSK") or porcine pancreatic kallikrein (hereinafter "PPK") was given intra-arterially, unless otherwise indicated, until a reproducible response was obtained. Each animal was then infused intravenously with KKI-7 inhibitor in DMSO (206 nmole/0.022 ml/min) or with the DMSO vehicle (0.022 ml/min). Bradykinin was also given intra-arterially to determine whether or not the KKI-7 inhibitor effected the blood flow response to bradykinin. The magnitude and duration of the responses to PPK, RSK, and bradykinin were compared before, during, and after the intravenous infusion of KKI-7 or the DMSO vehicle alone. The blood flow increase over the basal blood flow was integrated and expressed as arbitrary units or as the percent change from blood flow increased observed during the control period. The results are provided by FIG. 1 and Table IV below.

Human urinary kallikrein [3] = molecular target: T1, Human urinary kallikrein (Homo sapiens, UniProt P06870); experiment: KM determination: hydrolysis of substrate analogues by HUK (HPLC, scintillation counting); format: biochemical; details: analysis of the reaction products
T1 construct: Human urinary kallikrein (hereinafter "HUK") was highly purified using a modification of published methods; from tissue; host or cells: human urine
Method: (§3) Human urinary kallikrein (hereinafter "HUK") was highly purified using a modification of published methods that employ ultrafiltration, aprotinin-CH-sepharose affinity chromatography, and Sephadex G-100 gel filtration [ole-MoiYoi et al., Proc. Natl. Acad. Sci. USA 76: 3121-3125 (1979)]. […] The pH of each fraction was determined immediately upon elution, and the fraction was neutralized by addition of 2.0 ml of 2M Tris-HCL buffer (pH 8.0).
KM Determination: Hydrolysis of the substrate analogue inhibitors by HUK was measured by combining the test inhibitor at different concentrations on either side of the KM value with the enzyme at pH 9.0 for thirty minutes at 37 C. The cleavage products were separated from the starting material in the digest by HPLC on a Beckman octadecylsilane (ODS) column (1×25 cm) using a thirty minute gradient of from 0-70% CH3 CN in triethylammonium phosphate buffer (pH 7.0). The starting materials and reaction products were completely resolved under these conditions. Absorbance of the HPLC effluent was monitored at 220 nm. Individual fractions were collected and the amount of peptide degradation products was quantitated by counting in a liquid scintillation counter. Samples containing individual inhibitors were incubated without HUK and solvent blanks were also chromatographed and analyzed in the same way.
For test purposes, in these HUA cleavage studies, individual peptide sequences were synthesized, purified, and characterized as previously described herein. For these cleavage studies, doubly labelled peptides were prepared using [^3 H]-valine and […] respectively. In addition, 6.0N HCL-dioxane was used for removal of tert-butoxycarbonyl protecting groups and 90% hydrogen fluoride/10% anisole (volume/volume) for global deprotection on completion of the synthesis. After extraction and gel filtration on Sephadex G-15, final purification was completed by isocratic elution from a synchrom RP-P column (2.1×25 cm) with CH3 CN--H2 O (8 ml/min). The resultant peptides were deemed to be homogeneous by amino acid analysis; high performance liquid chromatography; thin layer chromatography; and A230 /A260 ratio analysis. […]

[4] = molecular target: T2, bovine pancreatic trypsin (Bos taurus, UniProt P00760); experiment: KI against trypsin with substrate S-2444; format: biochemical; details: read-out: K1, Trypsin
T2 sequence (P00760 24-246): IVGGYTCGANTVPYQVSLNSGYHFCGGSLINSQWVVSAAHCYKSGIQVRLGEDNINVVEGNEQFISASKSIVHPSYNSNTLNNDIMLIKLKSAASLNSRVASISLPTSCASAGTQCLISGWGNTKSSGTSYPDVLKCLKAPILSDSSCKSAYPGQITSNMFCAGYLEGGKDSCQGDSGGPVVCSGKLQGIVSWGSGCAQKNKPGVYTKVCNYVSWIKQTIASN
Method: (§4) Initially, the inhibitor constant (KI) for each of these novel inhibitor compositions was determined using purified HUK and the tripeptide nitroanilide, S-2266. The ability to inhibit hydrolysis of the S-2266 substrate was performed in 50 mM tris-HCL buffer (pH 9.0) at 37 C. Subsequently, the ability of these novel inhibitors to inhibit human plasma kallikrein and bovine pancreatic trypsin were similarly examined using the specific substrates H-D-Pro-Phe-Arg-p-nitroanilide (S-2302) and Glu-Gly-Arg-p-nitroanilide (S-2444) respectively. The degradation products of each series was purified by HPLC and quantified by liquid scintillation counting as previously described.

[5] = molecular target: T3, rat submaxillary gland kallikrein (Rattus norvegicus, UniProt P00758); experiment: Rat femoral artery blood flow response to RSK during and after inhibitor infusion; format: in vivo
T3 sequence (P00758 25-261): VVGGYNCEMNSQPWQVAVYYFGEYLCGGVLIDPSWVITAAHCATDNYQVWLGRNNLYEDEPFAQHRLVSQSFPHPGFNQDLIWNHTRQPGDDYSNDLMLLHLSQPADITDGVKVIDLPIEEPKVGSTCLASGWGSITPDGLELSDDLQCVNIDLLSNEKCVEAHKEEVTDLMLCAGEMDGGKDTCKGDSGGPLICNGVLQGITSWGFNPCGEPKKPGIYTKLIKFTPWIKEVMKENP
Description: as §2

[6] = Effects of the inhibitor infusion itself in the rat blood flow model; format: in vivo
Description: as §1

Human Plasma Kallikrein = Human Plasma Kallikrein (Homo sapiens, UniProt P03952); experiment: KI against plasma kallikrein with substrate S-2302; format: biochemical; details: read-out: K1, Human Plasma Kallikrein
Method: as §4

Human urinary kallikrein [7] = molecular target: T1, Human urinary kallikrein; experiment: KI determination: inhibition of HUK cleavage of chromogenic substrate S-2266; format: biochemical
Method: as §3
KI Determinations: KI measurements were performed using a HP8450A diode array spectrophotometer (Hewlett Packard; Palo Alto, Calif.) attached to a Model 216 computer using the multi-component assay program modified to allow simultaneous determination of reaction velocity in four samples. Dixon plots were used to data reduction and for calculation of […]. […] Inhibition of biologically active kinin from LMW-kininogen was done at pH 7.7 and 37 C.
Procedurally, the KI values for the preliminary analogue inhibitors reported previously [Okunishi et al., Hypertension 7 (Suppl. I): I-72-I-75 (1985)] were determined by adding the chromogenic substrate S-2266 comprising D-Val-Leu-Arg-4-nitroaniline to a mixture of the analogue inhibitor and the HUK.
as §4

Rat urinary kallikrein = molecular target: T4, Rat urinary kallikrein (Rattus norvegicus, UniProt P00758); experiment: Blood pressure response to injected rat urinary kallikrein during inhibitor infusion; format: in vivo; details: infusion 32 nmol/min/animal, anesthetized rats, RUK 203.5 ng
T4 sequence (P00758 25-261): T3 sequence (P00758 25-261)
Method: A series of in-vivo studies were undertaken to determine the effective of the KKI-7 and KKI-8 inhibitors on the blood pressure response to glandular kallikrein. Initially, three female Dahl hypertension-resistant rats (Brookhaven Laboratories, Brookhaven, N.Y.), and four male Sprague-Dewley rats (Charles River, Wilmington, Mass.) were utilized. Each of these animals was anesthetized with Inactin (100 mg/kg ip) and cannulated in a femoral artery with PE-50 polyethylene tubing (Clay Adams, Parsippany, N.J.) which was connected to a Hewlett-Packard model 1280 blood pressure transducer and model 7702B recorder. The right jugular vein was cannulated with PE-10 tubing. The rats were tracheostomized, but respiration was not artificially assisted. Rat urinary kallikrein (hereinafter "RUK") was repeatedly administered via a venous cannula until a reproducable response was obtained. KKI-8 inhibitor was then infused using a Harvard model 901 infusion pump at a rate of 32 nmol/0.022 ml/min. RUK (203.5 ng in 50 ul) was injected during the infusion period. After the infusion was stopped, the reversibility of the inhibition was examined by further injections of RUK. The infusion of KKI-8 (32 nmol/min/animal) inhibited the very gradual and modest decrease in blood pressure otherwise elicited with RUK.

[8] = iv infusion 206 nmole/0.022 ml/min in DMSO, 2 units PPK
[9] = iv infusion 206 nmole/0.022 ml/min in DMSO
[10] = HUK, S-2266, text, read-out: KI values
[11] = S-2266, 50 mM tris-HCL pH 9.0, 37 C, read-out: K1, Human Urinary Kallikrein

Chain of porcine pancreatic kallikrein (P00752 8-246): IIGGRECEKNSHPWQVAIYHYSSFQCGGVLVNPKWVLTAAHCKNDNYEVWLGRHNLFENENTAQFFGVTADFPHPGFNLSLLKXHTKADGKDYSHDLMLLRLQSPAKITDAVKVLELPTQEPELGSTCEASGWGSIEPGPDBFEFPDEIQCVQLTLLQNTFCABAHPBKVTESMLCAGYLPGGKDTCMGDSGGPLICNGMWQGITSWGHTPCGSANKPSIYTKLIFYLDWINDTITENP
T1 sequence (P06870 25-262): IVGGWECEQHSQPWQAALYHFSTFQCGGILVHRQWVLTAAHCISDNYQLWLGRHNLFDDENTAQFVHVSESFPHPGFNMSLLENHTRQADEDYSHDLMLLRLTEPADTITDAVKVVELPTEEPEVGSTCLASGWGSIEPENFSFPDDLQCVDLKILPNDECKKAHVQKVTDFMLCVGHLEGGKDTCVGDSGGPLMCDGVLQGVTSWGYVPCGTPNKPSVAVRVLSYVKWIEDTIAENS
Chain of Human Plasma Kallikrein (P03952 20-638): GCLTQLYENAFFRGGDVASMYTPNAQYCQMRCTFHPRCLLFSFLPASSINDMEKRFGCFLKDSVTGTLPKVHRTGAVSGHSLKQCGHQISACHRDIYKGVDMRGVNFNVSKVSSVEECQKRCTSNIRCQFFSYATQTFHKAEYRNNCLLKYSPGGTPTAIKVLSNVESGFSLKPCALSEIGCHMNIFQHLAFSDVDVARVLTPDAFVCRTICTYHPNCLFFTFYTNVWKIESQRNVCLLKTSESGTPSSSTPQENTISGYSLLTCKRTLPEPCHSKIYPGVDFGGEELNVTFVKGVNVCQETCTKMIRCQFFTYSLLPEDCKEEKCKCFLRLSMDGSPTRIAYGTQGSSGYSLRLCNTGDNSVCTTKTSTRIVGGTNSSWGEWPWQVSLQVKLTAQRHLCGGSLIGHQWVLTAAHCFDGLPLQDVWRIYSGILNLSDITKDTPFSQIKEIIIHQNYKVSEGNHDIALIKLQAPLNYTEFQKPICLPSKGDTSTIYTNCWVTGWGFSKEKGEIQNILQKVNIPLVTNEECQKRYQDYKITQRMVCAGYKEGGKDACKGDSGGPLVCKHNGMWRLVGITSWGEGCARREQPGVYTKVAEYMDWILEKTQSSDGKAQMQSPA

CC(C)[C@H](NC(=O)[C@H](CO)NC(=O)[C@H](CCCNC(=N)N)NC(=O)[C@H](Cc1ccccc1)NC(=O)CC1CCCCC1)C(=O)N[C@@H](CCC(N)=O)C(N)=O [KKI-7, Cha-Phe-Arg-Ser-Val-Gln-NH2]
effect on the response to bradykinin (bradykinin; bradykinin injected during the inhibitor infusion): no affect
CHANGE IN BLOOD FLOW (% OF CONTROL), BK injected, DURING INFUSION <10 min (bradykinin; iv infusion 206 nmole/0.022 ml/min in DMSO, 1-2 ng bradykinin): 95%
effect on mean arterial blood pressure ([1]; bolus injection or infusion 200 ug/kg/min for 15 minutes): induces substantial increases
ED50 dose, increase in blood pressure ([1]; bolus injections, conscious, salt-replete, normotensive rats): 0.75 mg/kg
response to the injection of PPK ([2]; 2 units of PPK, during and after infusion): reduced
CHANGE IN BLOOD FLOW (% OF CONTROL), PPK injected, AFTER INFUSION 30-60 min [2, 8]: 52%
CHANGE IN BLOOD FLOW (% OF CONTROL), PPK injected, DURING INFUSION 10-30 min [2, 8]: 31%
CHANGE IN BLOOD FLOW (% OF CONTROL), PPK injected, DURING INFUSION <10 min [2, 8]: 38%
rate of cleavage by HUK relative to hexapeptides containing proline in the P3 position (Human urinary kallikrein [3]): approximately 15%
Ki [4]: 12.3 µM
second phase of the response to RSK, of the control value, individual values ([5]; RSK reinjected 10-30 minutes after the infusion was started): 6% and 26%
CHANGE IN BLOOD FLOW (% OF CONTROL), RSK injected, AFTER INFUSION 30-60 min [5, 9]: 35%
CHANGE IN BLOOD FLOW (% OF CONTROL), RSK injected, AFTER INFUSION <10 min [5, 9]: 11%
CHANGE IN BLOOD FLOW (% OF CONTROL), RSK injected, DURING INFUSION 10-30 min [5, 9]: 16%
CHANGE IN BLOOD FLOW (% OF CONTROL), RSK injected, DURING INFUSION <10 min [5, 9]: 52%
response to RSK injections, of the control response, range ([5]; within the first ten minutes after infusion was begun): 49-56%
side-effects of infusing ([6]; during the experimental period): No specific side-effects
change in blood flow caused by the infusion itself ([6]; infusion in the DMSO vehicle): moderate, transient increase in blood flow
Ki (Human Plasma Kallikrein): 244 µM
Ki (Human urinary kallikrein [7]; [10]): 4 µM
Ki (Human urinary kallikrein [7]; [11]): 4 µM

Ada-Phe-Arg-Ser-Val-Gln-NH2 (Ada-FRSVQ-NH2; reading uncertain; also: printed as Ada-Phe-Arg-Ser-Val-Gln-NH2) [KKI-8]
effect on decrease in blood pressure elicited with RUK (Rat urinary kallikrein): inhibited
rate of cleavage by HUK relative to hexapeptides containing proline in the P3 position (Human urinary kallikrein [3]): approximately 15%
Ki [4]: 71.8 µM
Ki (Human Plasma Kallikrein): 358 µM
Ki (Human urinary kallikrein [7]; [10]): 4.2 µM
Ki (Human urinary kallikrein [7]; [11]): 4.2 µM
